According to PMC6593427, “DUckCov: a Dynamic Undocking‐Based Virtual Screening Protocol for Covalent Binders” (Chemmedchem, 2019):

What was measured:
Type in all cases: biochemical
JAK3 = target: T1, JAK3 (Homo sapiens, UniProt P52333); experiment: Z'-LYTE FRET kinase assay, 10-point titration
T1 construct: commercial Z'-LYTE kinase assay (Life Technologies)
T1 sequence (P52333 1-1124): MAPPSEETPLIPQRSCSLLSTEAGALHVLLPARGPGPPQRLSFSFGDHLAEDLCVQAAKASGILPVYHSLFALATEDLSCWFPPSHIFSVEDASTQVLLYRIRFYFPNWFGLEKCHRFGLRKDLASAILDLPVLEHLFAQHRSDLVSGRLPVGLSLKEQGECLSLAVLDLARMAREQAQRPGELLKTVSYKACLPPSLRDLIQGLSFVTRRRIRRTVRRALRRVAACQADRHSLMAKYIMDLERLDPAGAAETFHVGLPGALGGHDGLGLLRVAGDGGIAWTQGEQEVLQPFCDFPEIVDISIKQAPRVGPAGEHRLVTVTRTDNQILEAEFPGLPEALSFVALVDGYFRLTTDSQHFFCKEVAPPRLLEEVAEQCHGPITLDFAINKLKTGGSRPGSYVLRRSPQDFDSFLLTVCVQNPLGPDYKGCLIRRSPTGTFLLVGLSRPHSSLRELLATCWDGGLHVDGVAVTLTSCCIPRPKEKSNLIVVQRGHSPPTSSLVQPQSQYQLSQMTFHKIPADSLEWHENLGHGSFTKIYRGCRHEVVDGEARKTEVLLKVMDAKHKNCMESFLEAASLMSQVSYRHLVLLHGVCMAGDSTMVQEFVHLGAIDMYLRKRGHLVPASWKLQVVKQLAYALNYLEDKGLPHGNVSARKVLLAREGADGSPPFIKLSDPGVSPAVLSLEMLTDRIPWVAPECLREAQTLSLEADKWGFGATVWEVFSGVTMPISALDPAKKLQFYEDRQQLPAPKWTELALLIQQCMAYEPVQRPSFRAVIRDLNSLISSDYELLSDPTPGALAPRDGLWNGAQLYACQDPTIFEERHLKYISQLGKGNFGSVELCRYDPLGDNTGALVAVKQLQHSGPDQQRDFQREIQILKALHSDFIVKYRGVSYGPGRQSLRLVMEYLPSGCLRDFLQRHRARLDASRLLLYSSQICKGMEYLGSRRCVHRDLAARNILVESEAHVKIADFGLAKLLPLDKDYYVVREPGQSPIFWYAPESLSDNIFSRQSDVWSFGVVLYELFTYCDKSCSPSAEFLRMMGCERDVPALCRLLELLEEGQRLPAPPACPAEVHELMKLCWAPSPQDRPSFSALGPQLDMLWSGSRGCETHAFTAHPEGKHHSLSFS

JAK2 = JAK2 (Homo sapiens, UniProt O60674); experiment: kinase inhibition assay
JAK1 = JAK1 (Homo sapiens, UniProt P23458); experiment: kinase inhibition assay
JAK1, sequence (P23458 whole entry): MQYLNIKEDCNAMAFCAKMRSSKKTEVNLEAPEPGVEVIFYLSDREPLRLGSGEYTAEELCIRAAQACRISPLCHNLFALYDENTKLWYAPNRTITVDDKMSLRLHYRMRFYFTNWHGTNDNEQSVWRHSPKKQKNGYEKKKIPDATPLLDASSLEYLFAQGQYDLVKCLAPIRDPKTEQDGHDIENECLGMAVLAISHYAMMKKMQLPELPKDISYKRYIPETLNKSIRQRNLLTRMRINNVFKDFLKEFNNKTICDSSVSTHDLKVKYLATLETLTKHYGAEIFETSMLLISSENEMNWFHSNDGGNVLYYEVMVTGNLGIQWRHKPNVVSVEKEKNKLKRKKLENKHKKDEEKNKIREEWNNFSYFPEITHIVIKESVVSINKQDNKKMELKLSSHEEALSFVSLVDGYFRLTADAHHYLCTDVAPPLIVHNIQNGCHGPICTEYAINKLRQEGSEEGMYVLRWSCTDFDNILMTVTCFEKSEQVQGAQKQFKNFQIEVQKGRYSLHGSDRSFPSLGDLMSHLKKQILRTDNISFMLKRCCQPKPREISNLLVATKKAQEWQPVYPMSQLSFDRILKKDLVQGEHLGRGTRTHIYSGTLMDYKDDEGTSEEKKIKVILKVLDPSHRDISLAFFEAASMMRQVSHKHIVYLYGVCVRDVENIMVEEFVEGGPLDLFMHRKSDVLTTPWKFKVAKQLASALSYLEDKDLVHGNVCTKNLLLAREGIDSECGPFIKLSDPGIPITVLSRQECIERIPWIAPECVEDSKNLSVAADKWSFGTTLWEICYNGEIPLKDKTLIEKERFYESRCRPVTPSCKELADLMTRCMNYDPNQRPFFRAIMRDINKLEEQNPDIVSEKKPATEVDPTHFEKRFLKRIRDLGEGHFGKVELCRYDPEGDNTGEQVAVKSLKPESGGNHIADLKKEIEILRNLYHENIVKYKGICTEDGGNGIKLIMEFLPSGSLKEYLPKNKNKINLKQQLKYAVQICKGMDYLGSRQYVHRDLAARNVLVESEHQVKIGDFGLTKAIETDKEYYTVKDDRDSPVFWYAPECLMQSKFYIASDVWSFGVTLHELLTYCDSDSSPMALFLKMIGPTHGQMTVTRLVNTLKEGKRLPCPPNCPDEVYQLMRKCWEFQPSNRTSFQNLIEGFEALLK

JAK2, sequence (O60674 whole entry): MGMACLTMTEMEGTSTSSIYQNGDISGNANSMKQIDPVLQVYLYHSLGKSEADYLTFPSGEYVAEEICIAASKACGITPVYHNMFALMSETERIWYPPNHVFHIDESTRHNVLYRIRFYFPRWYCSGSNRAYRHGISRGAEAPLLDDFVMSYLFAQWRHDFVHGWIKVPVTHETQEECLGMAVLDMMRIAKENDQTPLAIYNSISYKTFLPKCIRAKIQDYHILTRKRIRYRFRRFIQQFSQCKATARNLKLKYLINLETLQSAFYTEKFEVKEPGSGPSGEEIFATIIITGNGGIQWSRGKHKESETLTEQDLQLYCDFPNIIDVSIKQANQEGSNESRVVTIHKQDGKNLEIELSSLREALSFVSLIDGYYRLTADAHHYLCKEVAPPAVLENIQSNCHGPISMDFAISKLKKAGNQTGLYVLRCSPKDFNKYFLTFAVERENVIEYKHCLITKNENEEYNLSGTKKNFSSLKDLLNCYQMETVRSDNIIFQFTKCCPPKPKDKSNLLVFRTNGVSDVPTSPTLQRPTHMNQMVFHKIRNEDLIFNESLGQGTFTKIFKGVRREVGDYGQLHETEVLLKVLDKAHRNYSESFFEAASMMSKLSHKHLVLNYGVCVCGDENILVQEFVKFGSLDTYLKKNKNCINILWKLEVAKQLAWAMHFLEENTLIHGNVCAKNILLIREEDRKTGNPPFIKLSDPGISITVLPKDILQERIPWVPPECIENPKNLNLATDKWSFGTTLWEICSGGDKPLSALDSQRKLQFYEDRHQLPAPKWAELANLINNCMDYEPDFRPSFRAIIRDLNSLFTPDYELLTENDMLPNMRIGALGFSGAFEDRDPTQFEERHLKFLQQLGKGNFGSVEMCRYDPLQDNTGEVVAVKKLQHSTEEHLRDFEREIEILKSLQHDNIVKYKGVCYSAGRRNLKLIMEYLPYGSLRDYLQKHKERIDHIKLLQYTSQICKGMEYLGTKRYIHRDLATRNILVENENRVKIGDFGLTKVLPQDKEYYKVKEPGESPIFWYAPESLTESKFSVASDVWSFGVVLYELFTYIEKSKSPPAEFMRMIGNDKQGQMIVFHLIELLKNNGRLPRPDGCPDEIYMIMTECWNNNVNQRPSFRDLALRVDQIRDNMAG

IC50 (JAK3) [nM] | inhibition at 10 µM (JAK2) [%] | inhibition at 10 µM (JAK1) [%] | SMILES
5 | – | – | C=CC(=O)N1C[C@H](COc2nc(Nc3cnn(C)c3)nc3[nH]cc(Cl)c23)[C@@H](OC)C1 [compound 1, PF-06459988]
389 | 62 | 18 | C=CC(=O)Nc1cc(NC(=O)c2n[nH]c3ccccc23)ccc1F [compound 5]
1270 | – | – | C=CC(=O)Nc1cc(NC(=O)c2n[nH]c3c2CCC3)ccc1F [compound 9]
